Experimental findings from PubChem BioAssay (NCI) are described below.

Structures are written as SMILES.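 Step 1: Grow cells in 96-well plates. Step 2: Expose to compound for 48 hours at 5 concentrations. Step 3: Interpolate endpoints linearly; if unreached, use highest concentration. GI50: concentration for 50% inhibition of growth. Definition used: TGI = concentration required for complete inhibition of growth.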 A value given as a limit tells only on which side of the number the result lay.

Among the test systems are BT-549 breast; CAKI-1 renal; CCRF-CEM leukemia; COLO 205 colon; HS 578T breast; KM12 colon; NCI-H23 lung; PC-3 prostate; RXF 393 renal; SF-268 CNS.
Common to all, as to assay: growth of human tumour cells (NCI), 48 h

For the compound `S=C1NC2=C(CCOc3c2ccc2ccccc32)C(c2ccc(Cl)cc2)N1` (stereo not given), the GI50 in the test on BT-549 breast was 25.8 µM; in the test on CAKI-1 renal, 32.5 µM; in the test with CCRF-CEM leukemia, 30.6 µM; with COLO 205 colon, 24.5 µM; in the test on HS 578T breast it was 21.5 µM; with KM12 colon, 47.5 µM. Also, the GI50 with NCI-H23 lung is 18.2 µM; with PC-3 prostate, 35.8 µM; in the test with RXF 393 renal it was 39 µM; in the test with SF-268 CNS, 39.2 µM. For the same compound, the TGI in the test on BT-549 breast was 91.9 µM; in the test with CAKI-1 renal, 72.5 µM; with CCRF-CEM leukemia, over 100 µM; with COLO 205 colon, over 100 µM; in the test on HS 578T breast, 73.5 µM; in the test on KM12 colon it was over 100 µM. Moreover, the TGI with NCI-H23 lung is 92 µM; with PC-3 prostate, over 100 µM; with RXF 393 renal, over 100 µM; in the test with SF-268 CNS, over 100 µM.

As to `COc1ccc2c(c1)/C(=N/OC(C)=O)c1c-2c(Nc2ccc(/C(C)=N/OC(C)=O)cc2)nc2ccccc12`, the GI50 with BT-549 breast was over 100 µM; in the test with CAKI-1 renal, 31.8 µM; with CCRF-CEM leukemia, 23.9 µM; in the test on COLO 205 colon, over 100 µM; in the test with HS 578T breast, 66 µM; with KM12 colon, 43.5 µM. The GI50 with NCI-H23 lung is 35.5 µM; with PC-3 prostate it was 18.8 µM; in the test with RXF 393 renal it was over 100 µM; in the test on SF-268 CNS it was 37.7 µM. For the same compound, the TGI in the test with BT-549 breast was over 100 µM; with CAKI-1 renal, 98.2 µM; in the test with CCRF-CEM leukemia, 47.4 µM; with COLO 205 colon it was over 100 µM; in the test on HS 578T breast it was over 100 µM; with KM12 colon, over 100 µM. Also, the TGI in the test on NCI-H23 lung was over 100 µM; with PC-3 prostate, 38.4 µM; in the test with RXF 393 renal, over 100 µM; with SF-268 CNS, over 100 µM.

As to `CCN(Cc1cccc(C)c1)c1ccc(CO)c(Cl)c1`, the GI50 with BT-549 breast was 13.4 µM; in the test on CAKI-1 renal, 1.31 µM; with CCRF-CEM leukemia, 15.6 µM; with COLO 205 colon it was 2.53 µM; with HS 578T breast, 15.2 µM; in the test with KM12 colon it was 13.9 µM. The GI50 is 10.1 µM in the test with NCI-H23 lung, 12.6 µM in the test with PC-3 prostate, 6.52 µM in the test with RXF 393 renal and 16.2 µM in the test on SF-268 CNS. Further, the TGI in the test on BT-549 breast came out at 27.2 µM; with CAKI-1 renal it was 14.7 µM; in the test on CCRF-CEM leukemia, 39.8 µM; in the test with COLO 205 colon, 6.92 µM; in the test on HS 578T breast, 37.7 µM; in the test on KM12 colon, 27.8 µM. Moreover, the TGI in the test with NCI-H23 lung came out at 25.5 µM; with PC-3 prostate, 26.1 µM; in the test on RXF 393 renal, 21.9 µM; in the test on SF-268 CNS, 31.1 µM.

Consider `O=C(N/N=C\c1cc(Br)cc(Br)c1O)N/N=C/c1cc(Br)cc(Br)c1O`, for which the GI50 in the test on BT-549 breast was 5.54 µM; in the test on CAKI-1 renal it was 3.29 µM; in the test on CCRF-CEM leukemia it was 0.534 µM; with COLO 205 colon, 3.92 µM; with HS 578T breast, 19.8 µM; with KM12 colon, 2.9 µM. The GI50 with NCI-H23 lung is 6.21 µM; in the test on PC-3 prostate, 2.9 µM; with RXF 393 renal, 3.57 µM; in the test with SF-268 CNS, 1.47 µM. Further, the TGI in the test with BT-549 breast was found to be 25.7 µM; in the test with CAKI-1 renal it was 15.9 µM; in the test on CCRF-CEM leukemia it was 4.48 µM; in the test on COLO 205 colon, 14.6 µM; in the test on HS 578T breast, 51.2 µM; in the test on KM12 colon, 11.7 µM. Further, the TGI with NCI-H23 lung is 23.5 µM; in the test with PC-3 prostate, 16.7 µM; with RXF 393 renal, 27.3 µM; in the test with SF-268 CNS, 12 µM.

As for `C/C(=C\COc1ccc2ccc(=O)oc2c1)CCC(=O)C(C)(C)O`, the TGI with BT-549 breast was 74.9 µM; in the test with CAKI-1 renal, over 100 µM; in the test with CCRF-CEM leukemia it was 46.7 µM; in the test on COLO 205 colon it was 44.4 µM; in the test with HS 578T breast, 78.2 µM; with KM12 colon it was 41 µM. The TGI with NCI-H23 lung was over 100 µM; in the test on PC-3 prostate, over 100 µM; with RXF 393 renal, 39.9 µM; in the test with SF-268 CNS, over 100 µM.

Take `NS(=O)(=O)c1ccc(N=Nc2cc3ccccc3c(C(=O)O)c2O)cc1`: the TGI in the test on BT-549 breast, with CAKI-1 renal, in the test with CCRF-CEM leukemia, in the test with COLO 205 colon, with HS 578T breast and with KM12 colon was over 100 µM each time. In addition, the TGI with NCI-H23 lung is over 100 µM; in the test with PC-3 prostate, over 90.3 µM; in the test on RXF 393 renal, over 70.1 µM; in the test on SF-268 CNS, over 85.6 µM.

Turning to `O=C(CN1CCN(c2cc3c(cc2F)c(=O)c(C(=O)O)cn3C2CC2)CC1)Nc1ccc(C(=O)/C=C/c2ccccc2)cc1`, the GI50 with BT-549 breast was 3.55 µM; in the test on CAKI-1 renal, 1.76 µM; with CCRF-CEM leukemia, 4.09 µM; in the test on COLO 205 colon it was 36.3 µM; with HS 578T breast, 4.99 µM; in the test on KM12 colon it was 4.11 µM. In addition, the GI50 in the test on NCI-H23 lung was 2.48 µM; with PC-3 prostate, 3.16 µM; in the test with RXF 393 renal it was 2.5 µM; in the test on SF-268 CNS it was 4.13 µM. The TGI with BT-549 breast is over 100 µM; with CAKI-1 renal, 5.32 µM; in the test with CCRF-CEM leukemia it was over 100 µM; in the test with COLO 205 colon it was over 100 µM; in the test on HS 578T breast, over 100 µM; in the test on KM12 colon, over 100 µM. Besides, the TGI with NCI-H23 lung is 14.3 µM; with PC-3 prostate, over 100 µM; in the test on RXF 393 renal, over 100 µM; with SF-268 CNS, over 100 µM.
